Experimental data reported in US20080138299A1, “Oral Pharmaceuticals or Oral Hygiene Products Comprising Licorice Flavonoid Extract” (Hawley & Hazel (BVI) Company Limited, priority 2006, published 2008).

Key:
[1] = system: Actinomyces naeslundii (A. n) ATCC 12104; assay: Broth micro-dilution MIC; format: cell-based; conditions: no unit in table; dilution series 250-0.12 mg/L, ceiling 250 ppm; 37 °C, 18-24 h; smaller = stronger
Text: (§1) 3. The Inhibition Experiment of Licochalone A and Total Flavonoid Extracts of Zhangguo Licorice (Glycyrrhiza inflate Betal) on Primary Oral Pathogenic Microorganisms 3.1 The Cultivation of the Bacteria Species: Streptococcus mutans (ATCC 25175), Actinomyces naeslundii (ATCC 12104), Actinobacillus actinomycetemicomtans (ATCC 43717), Porphyromonas gingivalis (ATCC 33277), Listed as Following:
(§2) A single colony is picked from the Trypticase Digested Soybean peptone agar blood plate (TSA5B) ordinarily stored bacteria species to Trypticase Digested Soybean peptone broth (TSB), cultivated in microaerobic environment (only P.g needs anaerobic cultivation) with 95% air, 5% CO2 at 37.0° C.±1.0° C., wherein S.m is cultivated for 18-24 h, and the remaining three are cultivated for 40-48 h. Then sterile TSB is used to adjust the turbidity of the bacteria suspension to 0.5^#McFarland standard, equivalent to 1.0×10^8 CFU/mL.
(§3) After performing a series of 2-fold dilutions to the anti-bacteria pharmaceuticals, rationally inoculate with tested bacteria, and observe after incubated at 37° C. for 18-24 h, wherein the lowest pharmaceutical concentration that inhibits the growth visible to the naked eye of the tested bacteria is the minimum inhibitive concentration (MIC) of the tested pharmaceuticals to the tested bacteria. The operating steps are:
(§4) a. Preparation of the stock solution of antibacterial pharmaceutical: Prepare 1% stock solution of various antibacterial pharmaceuticals dope with 100% pure ethanol as solvent. The prepared stock solution is filtered to eliminate bacteria, and is distributed into small portions to be used. b. Range of measured concentration: the present experiment chooses 250 ppm as the ceiling measured concentration of the anti-bacteria pharmaceutical. c. Measuring method: micro-dilution method.
(§5) First add 100 μL TSB to each hole of the 96-well plate, and add 100 μL sterile anti-bacteria pharmaceutical solution which is diluted 10-folds (1000 mg/l) to each hole of the first column, then blow on each hole of the first column repeatedly for 7-8 times using multi-channel micropipet, transfer 100 μL sample to the second column after sufficiently mixing the pharmaceutical with TSB, and after similarly blowing for 7-8 times, transfer 100 μL sample to the third column, and analogously to the last column, thus the concentration of pharmaceutical is 2-fold gradiently diluted, from 500 mg/L of the first column to 0.24 mg/L of the last column (the 12th column).
(§6) The bacteria to be tested and standard bacteria are prepared as above. Dilute the bacteria solution with TSB to a bacteria content of about 10^6 CFU/mL. Then inoculate 100 μL for each hole. Thus the final diluted concentration of the anti-bacteria pharmaceutical in each line are 250, 125, 62.5 . . . 0.12 mg/L, and the final inoculation quantity is about […] or 5×10^6 bacteria each hole; the 96-well plate is placed on a microshaker and is shook for 1 min to mix the solution in each hole. The microwell plate is covered and is sealed with adhesive paper to reduce the evaporation during the incubation process and is placed in a humid box, cultivated in microaerobic environment with 95% air, 5% CO2 (or in anaerobic environment with 90% N2, 5% H2, 5% CO2) at 37.0° C.±1.0° C. for 18-24 h. The 96-well plate is placed under an enzyme-labeling instrument, and by comparing the growing characteristics of the tested bacteria with the standard bacteria, the lowest anti-bacteria pharmaceutical concentration contained in the hole without bacteria is taken as MIC.

[2] = system: Actinobacillus actinomycetemcomitans (A. a) ATCC 43717; assay: Broth micro-dilution MIC; format: cell-based; conditions: no unit in table; dilution series 250-0.12 mg/L, ceiling 250 ppm; 37 °C, 18-24 h; smaller = stronger
Text: as §1, §2, §3, §4, §5, §6

[3] = system: Porphyromonas gingivalis (P. g) ATCC 33277; assay: Broth micro-dilution MIC; format: cell-based; conditions: no unit in table; dilution series 250-0.12 mg/L, ceiling 250 ppm; anaerobic, 37 °C, 18-24 h; smaller = stronger
Text: as §1, §2, §3, §4, §5, §6

[4] = system: Streptococcus mutans (S. m) ATCC 25175; assay: Broth micro-dilution MIC; format: cell-based; conditions: no unit in table; dilution series 250-0.12 mg/L, ceiling 250 ppm; 37 °C, 18-24 h; smaller = stronger
Text: as §1, §2, §3, §4, §5, §6

IL-6 = assay: KB cell Luminex liquid-phase chip analysis; format: cell-based, human; conditions: KB cell supernatant, higher = stronger, test concentration not given
Experimental: (§7) During the experiment, the KB cell inoculated in the cultivating plate is treated with or without (control) Licochalone A. After the treatment, the supernatant of the cultivated liquid is collected and stored in −80 C refrigerator. The PGE2 in the supernatant is detected by Enzyme-linked immunsorbent assay, and Luminex multifunctional liquid-phase chip analysis system is used for the detection of GM-CSF, TNF-α, IL-1β and IL-6 (the result is shown in Table 3).
(§8) The 96-well plate is enclosed for 30 min. The fluorescent microspheres are added into the 96-well plate after dilution. Add the standard sample and the sample to be measured, stay overnight at 4° C. In the next day, the supernatant is discarded, and 50 μl GM-CSF, TNF-α, IL-1β and IL-6 antibodies are added to each hole. After rinsing 4 times, the 96-well plate is placed in a shaking table under ambient temperature to shade from light for 1 h, rinse 4 times, and add PE labeled with streptavidin and shade from light for 15 min at room temperature. Rinse 4 times, the microspheres are suspended in the rinsing buffer, and the 96-well plate is immediately placed on Luminex (Luminex Corporation, Austin, Tx.) to analyze.

GM-CSF = assay: KB cell Luminex liquid-phase chip analysis; format: cell-based, human; conditions: KB cell supernatant, higher = stronger, test concentration not given
Experimental: as §7, §8

TNF-α = assay: KB cell Luminex liquid-phase chip analysis; format: cell-based, human; conditions: KB cell supernatant, higher = stronger, test concentration not given
Experimental: as §7, §8

IL-1β = assay: KB cell Luminex liquid-phase chip analysis; format: cell-based, human; conditions: KB cell supernatant, higher = stronger, test concentration not given
Experimental: as §7, §8

| SMILES | minimum inhibitive concentration (MIC), A. n [1] | minimum inhibitive concentration (MIC), A. a [2] | minimum inhibitive concentration (MIC), P. g [3] | minimum inhibitive concentration (MIC), S. m [4] | IL-6 (interleukin) (anti-inflammatory ability) (IL-6) | GM-CSF (anti-inflammatory ability) (GM-CSF) | TNF-α (Tumor Necrosis Factor) (anti-inflammatory ability) (TNF-α) | IL-1β (interleukin) (anti-inflammatory ability) (IL-1β) |
| --- | --- | --- | --- | --- | --- | --- | --- | --- |
| C=CC(C)(C)c1cc(/C=C/C(=O)c2ccc(O)cc2)c(OC)cc1O [Licochalone A, 5-(1,1-Dimethylallyl)-4,4′-dihydroxy-2-methoxychalcone] | 7.8 | >250 | 1.9 | 7.8 | 50% | 8% | 95% | 19% |
| Oc1cc(Cl)ccc1Oc1ccc(Cl)cc1Cl [Triclosan] | 3.9 | 1.9 | 7.8 | 3.9 | 31% | 5% | 81% | 7% |
